Laboratory results: patent US4333873A, “Pharmacologically active peptides” (Eli Lilly and Company, priority 1981, dated 1982)
Counter-ions that a name gives are not always drawn.

System: mouse
Assay: mouse hot plate test (analgesic activity)
Type: in vivo
Settings: hot plate 52° C., 15 minutes after administration, latency to jump
Protocol: In this test, a mouse is placed inside an upright acrylic cylinder comprising, as its base, a hot plate surface which is maintained at 52° C. The mouse is given, orally or by subcutaneous injection, a predetermined amount of test compound dissolved or suspended in a suitable carrier, and, 15 minutes after administration of the test compound, the mouse is placed on the hot plate surface. The latency in seconds until the mouse jumps from the hot plate surface is measure. […] This must occur in a dose range which produces no motor incoordination or incapacitation. The following Table records the ED50 results obtained from this test.

SMILES	Analgesic Activity, Hot Plate Test ED50, mg./kg. subcutaneous [mg/kg]
C=CCN(C(=O)CNC(=O)[C@@H](C)NC(=O)[C@@H](N)Cc1ccc(O)cc1)[C@@H](Cc1ccccc1)C(N)=O [Example 1, L-Tyrosyl-D-alanyl-glycyl-L-(N^α -allyl)phenylalanine Amide, Acetate Salt]	0.01
C[C@@H](NC(=O)[C@@H](N)Cc1ccc(O)cc1)C(=O)NCC(=O)N(CC1CC1)[C@@H](Cc1ccccc1)C(N)=O [Example 2, L-Tyrosyl-D-alanyl-glycyl-L-(N^α -cyclopropylmethyl)phenylalanine Amide, Acetate Salt]	0.012
